Laboratory results published in paper PMC7730863 (Journal of medicinal chemistry, 2020).

Molecular target: EGFR-L858R/T790M (Homo sapiens, UniProt P00533, L858R/T790M)
Experiment: radiolabeled 33P
Type: biochemical
Conditions: statement in text referring to Table 1

EGFR-L858R/T790M, sequence (P00533 25-1210 T790M/L858R): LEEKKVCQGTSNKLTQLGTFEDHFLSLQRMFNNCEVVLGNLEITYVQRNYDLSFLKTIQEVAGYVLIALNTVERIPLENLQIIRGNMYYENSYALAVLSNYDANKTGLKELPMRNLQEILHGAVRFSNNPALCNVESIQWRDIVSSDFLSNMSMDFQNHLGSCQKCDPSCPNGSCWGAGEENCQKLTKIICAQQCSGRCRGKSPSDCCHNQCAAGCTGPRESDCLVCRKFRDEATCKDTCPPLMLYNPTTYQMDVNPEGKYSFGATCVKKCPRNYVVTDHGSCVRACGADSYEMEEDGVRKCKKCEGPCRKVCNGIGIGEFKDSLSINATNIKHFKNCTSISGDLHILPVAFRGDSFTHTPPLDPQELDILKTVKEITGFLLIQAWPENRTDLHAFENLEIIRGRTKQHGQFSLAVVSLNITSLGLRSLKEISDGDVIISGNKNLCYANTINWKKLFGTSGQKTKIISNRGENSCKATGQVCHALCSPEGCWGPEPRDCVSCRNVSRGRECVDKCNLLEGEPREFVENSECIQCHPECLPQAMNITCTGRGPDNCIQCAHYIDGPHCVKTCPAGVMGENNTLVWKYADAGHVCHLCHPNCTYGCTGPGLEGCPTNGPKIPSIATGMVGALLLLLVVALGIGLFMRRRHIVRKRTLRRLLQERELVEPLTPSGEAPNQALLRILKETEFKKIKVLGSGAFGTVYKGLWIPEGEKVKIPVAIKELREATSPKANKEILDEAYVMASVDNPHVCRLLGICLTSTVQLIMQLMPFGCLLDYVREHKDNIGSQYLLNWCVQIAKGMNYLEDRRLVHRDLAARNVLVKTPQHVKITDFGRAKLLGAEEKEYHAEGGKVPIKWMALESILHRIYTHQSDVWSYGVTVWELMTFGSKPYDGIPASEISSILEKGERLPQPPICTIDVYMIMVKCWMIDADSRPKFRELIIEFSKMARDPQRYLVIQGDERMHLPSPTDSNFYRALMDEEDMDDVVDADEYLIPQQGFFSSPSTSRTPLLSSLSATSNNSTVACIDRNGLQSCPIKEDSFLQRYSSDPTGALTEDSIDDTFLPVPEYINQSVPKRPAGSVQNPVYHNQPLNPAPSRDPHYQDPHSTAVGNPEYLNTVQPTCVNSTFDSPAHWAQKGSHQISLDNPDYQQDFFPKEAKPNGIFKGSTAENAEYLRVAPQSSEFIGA

## C=CC(=O)Nc1ccc(OC)c(Nc2cc(-c3nc(SC)n(C)c3-c3ccc(F)cc3)ccn2)c1 [Compound 7, N-(3-((4-(5-(4-fluorophenyl)-1-methyl-2-(methylthio)-1H-imidazol-4-yl)pyridin-2-yl)amino)-4-methoxyphenyl)acrylamide]
  potency against EGFR(L858R/T790M), in words: low nanomolar potency
